Literature values, collected in US20230140155A1, “MEDICAMENT FOR TREATMENT AND/OR PREVENTION OF CANCER” (TORAY INDUSTRIES, INC., priority 2020, published 2023).

Tested on: basal-like subtype breast cancer (BLBC)
Settings: with docetaxel following epirubicin and cyclophosphamide (EC treatment)

Compound: [NH2][Pt]1([NH2])[O]C(=O)C2(CCC2)C(=O)[O]1 [carboplatin, (SP-4-2)-diammine[cyclobutan-1,1-dicaruboxylato(2-)-O,O′]platinum]
- effectiveness for treatment of BLBC: not effective
